Laboratory results reported in patent US6423731B1, “Indole derivatives as prodrugs of 5-HT1-like receptor agonists” (Zeneca Limited, priority 1994, dated 2002).

How the values were obtained:
[1] = Plasma concentrations in rats after intravenous administration; format: in vivo, rat
Procedure: (§1) Investigations were carried out in rats to determine whether 4-[1-Acetyl-3-[2-(dimethylamino)ethyl]indol-5-ylmethyl]oxazolidin-2-one acetate (compound of Example 6) acts as a prodrug for the pharmacologically active compound 4-[3-[2-(dimethylamino)ethyl]-1H-indol-5-ylmethyl]-2-oxazolidinone described in EP-A-0486666. The compound of Example 6 was incubated with rat plasma at a concentration of approx. 0.2 μg/ml for up to 4 h. At selected times the incubations were terminated by addition of acetone and the concentrations of both 4-[1-Acetyl-3-[2-(dimethylamino)ethyl]indol-5-ylmethyl]oxazolidin-2-one acetate and its breakdown product 4-[3-[2-(dimethylamino)ethyl]-1H-indol-5-ylmethyl]-2-oxazolidinone were determined by HPLC assay. In addition rats were administered 4-[1-Acetyl-3-[2-(dimethylamino)ethyl]indol-5-ylmethyl]oxazolidin-2-one acetate intravenously at a dose of 4 mg/kg and the plasma and brain concentrations of this compound and the breakdown product, 4-[3-[2-(Dimethylamino)ethyl]-1H-indol-5-ylmethyl]- 2-oxazolidinone were determined up to 8 h after administration.
After intravenous administration, the peak plasma concentration (Cmax) of 4-[1-acetyl-3-[2-(dimethylamino)ethyl]indol-5-ylmethyl]oxazolidin-2-one acetate was approx 0.2 μg/ml (5 min) and this parent compound was detectable up to 1 h post dose (limit of detection 0.02 μg/ml); the plasma half-life was approximately 0.2 h. The breakdown product, 4-[3-[2-(dimethylamino) ethyl]-1H-indol-5-ylmethyl]-2-oxazolidinone was also detected in the plasma (Cmax 0.3 μg/ml, 5 min) up to 4 h after dosage.

[2] = Diffusion through a lipoidal membrane barrier (trans-cellular absorption); format: physicochemical; conditions: laceryl alcohol/caprytic acid lipid membrane
Procedure: The diffusion rates of the Compound of Example 3 and the active compound, 4-[3-[2-dimethylamino)ethyl]-1H-indol-5-ylmethyl]-2-oxazolidinone, through a lipoidal membrane barrier (laceryl alcohol/caprytic acid lipid membrane) were determined and compared.

[3] = Incubation with rat hepatocytes (conversion to active compound); format: in vitro ADME
Procedure: The compound of Example 3 was incubated with rat hepalocytes to determine whether the active compound, 4-[3-[2-(dimethylamino)ethyl]-1H-indol-5-ylmethyl]-2-oxazolidinone, is a main product of its metabolism.

[4] = Incubation of compound with rat plasma, HPLC assay of parent and breakdown product; format: in vitro ADME
Procedure: as §1
4-[1-Acetyl-3-[2-(dimethylamino)ethyl]indol-5-ylmethyl]oxazolidin-2-one acetate was converted to 4-[3-[2-(Dimethylamino)ethyl]-1H-indol-5-ylmethyl]-2-oxazolidinone in rat plasma, with a half-life of approximately 3 h. After 4 h incubation only 30% of the parent compound of example 6 remained.

Row | SMILES | breakdown product detected in plasma up to, after dosage ([1]; rat, in vivo, iv, 4 mg/kg) | Diffusion Rate [2] [cm/min/1000] | conversion into the active compound [3] | compound remaining ([3]; after 30 minutes incubation) | melting point [°C] | half-life ([1]; in vivo, rat, intravenous, 4 mg/kg) [h] | Cmax ([1]; in vivo, rat, intravenous, 4 mg/kg, read-out: peak plasma concentration (Cmax) of parent compound) [ng/mL] | parent compound detectable in plasma up to, post dose ([1]; rat, intravenous, 4 mg/kg, limit of detection 0.02 μg/ml) | conversion into active compound in rats ([1]; rats, plasma incubation and intravenous experiments) | half-life at 0.2 μg/ml ([4]; rat plasma incubation, approx. 0.2 μg/ml, up to 4 h, read-out: half-life of conversion to 4-[3-[2-(Dimethylamino)ethyl]-1H-indol-5-ylmethyl]-2-oxazolidinone in rat plasma (converted)) [h] | parent compound remaining ([4]; rat plasma, after 4 h incubation) [%]
1 | CN(C)CCc1c[nH]c2ccc(CC3COC(=O)N3)cc12 (stereo not drawn) [Active compound, 4-[3-[2-(dimethylamino)ethyl]-1H-indol-5-ylmethyl]-2-oxazolidinone, reference compound] | up to 4 h | 0.68 |  |  |  |  |  |  |  |  | 
2 | CC(=O)O.Cc1ccccc1C(=O)n1cc(CCN(C)C)c2cc(CC3COC(=O)N3)ccc21 (stereo not drawn) [Example 3, 4-[1-(2-toluoyl)-3-[2-(dimethylamino)ethyl]indol-5-ylmethyl]oxazolidin-2-one acetate] |  | 3.88 | extensively and rapidly converted into the active compound | no compound of Example 3 remained | 51.5 to 54 |  |  |  |  |  | 
3 | CC(=O)O.CC(=O)n1cc(CCN(C)C)c2cc(CC3COC(=O)N3)ccc21 (stereo not drawn) [Example 6, 4-[1-Acetyl-3-[2-(dimethylamino)ethyl]indol-5-ylmethyl]oxazolidin-2-one acetate] |  |  |  |  |  | ~0.2 | ~200 | up to 1 h | is converted into 4-[3-[2-(dimethylamino)ethyl]-1H-indol-5-ylmethyl]-2-oxazolidinone in rats | ~3 | 30
